From US10544444B2, “Compositions for in situ labeling of bacterial cell walls with fluorophores and methods of use thereof” (priority 2012, dated 2020) come the findings set out here.

Each structure is given as a SMILES string.

In experiment [1] the test system is E. coli, B. subtilis, A. tumefaciens, L. lactis, M. conglomeratus, C. crescentus and S. aureus. The experiment can be described thus: Short pulse labeling of evolutionarily distinct bacteria. The experiment is classed as cell-based. Conditions: pulsed for 2%-8% of generation time, immediately fixed.
Experiment [2] deals with Agrobacterium tumefaciens. Nature of the experiment: Cell wall / PG labeling of live A. tumefaciens, fluorescence microscopy. The class given is cell-based. As to conditions: for incorporation into the cell wall: control experiments, fluorescent D-Ala vs fluorescent L-Ala.

For `NC(CNC(=O)c1cc2ccc(O)cc2oc1=O)C(=O)O` (stereo not shown) [HADA], in experiment [1], the “visibility of sites of active cell wall synthesis” value is “sites of active synthesis were clearly visible”. Further, the “incorporation into the cell wall” value in experiment [2] is given as “incorporated into the cell wall”. Besides, in experiment [2] (live A. tumefaciens, long pulse), the “PG labeling, long labeling pulses” value was “uniformly label PG”.
As to `N[C@@H](CNC(=O)c1cc2ccc(O)cc2oc1=O)C(=O)O` [HALA], in experiment [2], the “incorporation into the cell wall” value is “only D-HCC was incorporated”.
